Assay results taken from US9783523B2, “N-acylimino heterocyclic compounds” (BASF SE, priority 2013, dated 2017).

What was measured:
Assay type in all cases: in vivo
Myzus persicae = assay: Green peach aphid (Myzus persicae), systemic control, liquid artificial diet under membrane in 96-well microtiter plates; conditions: 72 h, read-out: mortality in comparison with untreated controls
From the text: General conditions: If not otherwise specified, most test solutions are to be prepared as follows: The active compound is to be dissolved at the desired concentration in a mixture of 1:1 (vol:vol) distilled water:acteon. Further, the test solutions are to be prepared at the day of use (and, if not otherwised specified, in general at concentrations wt/vol).
For evaluating control of green peach aphid (Myzus persicae) through systemic means, the test unit consists of 96-well-microtiter plates containing liquid artificial diet under an artificial membrane.
The compounds are formulated using a solution containing 75% v/v water and 25% v/v DMSO. Different concentrations of formulated compounds are pipetted into the aphid diet, using a custom built pipetter, at two replications.
After application, 5-8 adult aphids are placed on the artificial membrane inside the microtiter plate wells. The aphids are then allowed to suck on the treated aphid diet and incubated at about 23+1° C. and about 50+5% relative humidity for 3 days. Aphid mortality and fecundity is then visually assessed.

Megoura viciae = assay: Vetch aphid (Megoura viciae), sprayed bean leaf disks in microtiter plates; conditions: foliar, 144 h, read-out: mortality in comparison with untreated controls
Method: The active compounds were formulated in 3:1 (vol:vol) water:DMSO with different concentrations of formulated compounds.
Bean leaf disks were placed into microtiterplates filled with 0.8% agar-agar and 2.5 ppm OPUS™. The leaf disks were sprayed with 2.5 μl of the test solution and 5 to 8 adult aphids were placed into the microtiter plates which were then closed and kept at 23±1° C. and 50±5% relative humidity under fluorescent light for 6 days. Mortality was assessed on the basis of vital, reproduced aphids. Aphid mortality and fecundity was then visually assessed.

Aphis gossypi = assay: Cotton aphid (Aphis gossypi), infested cotton plants sprayed; conditions: 120 h, read-out: mortality in comparison with untreated controls
Method: (§1) The active compounds were formulated in cyclohexanone as a 10,000 ppm solution supplied in 1.3 ml ABgene® tubes. These tubes were inserted into an automated electrostatic sprayer equipped with an atomizing nozzle and they served as stock solutions for which lower dilutions were made in 1:1 (vol:vol) water:aceton. A nonionic surfactant (Kinetic®) was included in the solution at a volume of 0.01% (v/v).
Cotton plants at the cotyledon stage were infested with aphids prior to treatment by placing a heavily infested leaf from the main aphid colony on top of each cotyledon. Aphids were allowed to transfer overnight to accomplish an infestation of 80-100 aphids per plant and the host leaf was removed. The infested plants were then sprayed by an automated electrostatic plant sprayer equipped with an atomizing spray nozzle. The plants were dried in the sprayer fume hood, removed from the sprayer, and then maintained in a growth room under fluorescent lighting in a 24-hr photoperiod at 25° C. and 20-40% relative humidity. Aphid mortality on the treated plants, relative to mortality on untreated control plants, was determined after 5 days.

Aphis craccivora = assay: Cowpea aphid (Aphis craccivora), potted cowpea plants sprayed; conditions: 72 h, read-out: mortality in comparison with untreated controls
Method: The active compound is dissolved at the desired concentration in a mixture of 1:1 (vol:vol) distilled water:acetone. Surfactant (Alkamuls® EL 620) is added at a rate of 0.1% (vol/vol). The test solution is prepared at the day of use.
Potted cowpea plants are colonized with approximately 50-100 aphids of various stages by manually transferring a leaf tissue cut from infested plant 24 hours before application. Plants are sprayed after the pest population has been recorded. Treated plants are maintained on light carts at about 28° C. Percent mortality is assessed after 72 hours.

Dichromothrips corbetti = assay: Orchid thrips (Dichromothrips corbetti), floral-immersion technique; conditions: 72 h, read-out: mortality in comparison with untreated controls
Method: Dichromothrips corbetti adults used for bioassay are obtained from a colony maintained continuously under laboratory conditions. For testing purposes, the test compound is diluted in a 1:1 mixture of acetone:water (vol:vol), plus 0.01% vol/vol Alkamuls® EL 620 surfactant.
Thrips potency of each compound is evaluated by using a floral-immersion technique. Plastic petri dishes are used as test arenas. All petals of individual, intact orchid flowers are dipped into treatment solution and allowed to dry. Treated flowers are placed into individual petri dishes along with about 20 adult thrips. The petri dishes are then covered with lids. All test arenas are held under continuous light and a temperature of about 28° C. for duration of the assay. After 3 days, the numbers of live thrips are counted on each flower, and along inner walls of each petri dish. The percent mortality is recorded 72 hours after treatment.

Nephotettix virescens = assay: Rice green leafhopper (Nephotettix virescens), sprayed rice seedlings; conditions: 72 h, read-out: mortality in comparison with untreated controls
Method: (§2) Rice seedlings are cleaned and washed 24 hours before spraying. The active compounds are formulated in 50:50 acetone:water (vol:vol), and 0.1% vol/vol surfactant (EL 620) is added. Potted rice seedlings are sprayed with 5 ml test solution, air dried, placed in cages and inoculated with 10 adults. Treated rice plants are kept at about 28-29° C. and relative humidity of about 50-60%. Percent mortality is recorded after 72 hours.

Nilaparvata lugens = assay: Rice brown plant hopper (Nilaparvata lugens), sprayed rice seedlings; conditions: 72 h, read-out: mortality in comparison with untreated controls
Method: as §2, with “compounds is” for “compounds are”, “acetone:water (vol:vol)” for “acetone:water (vol:vol),”, “620) was” for “620) is”

Anthonomus grandis = assay: Boll weevil (Anthonomus grandis), eggs on insect diet in 24-well microtiter plates; conditions: 120 h, read-out: mortality in comparison with untreated controls
Method: The compounds were formulated in 3:1 (vol:vol) water:DMSO.
For evaluating control of boll weevil (Anthonomus grandis) the test unit consisted of 24-well-microtiter plates containing an insect diet and 20-30 A. grandis eggs. Different concentrations of formulated compounds were sprayed onto the insect diet at 20 μl, using a custom built micro atomizer, at two replications. After application, the microtiter plates were incubated at 23±1° C. and 50±5% relative humidity for 5 days. Egg and larval mortality was then visually assessed.

Ceratitis capitata = assay: Mediterranean fruitfly (Ceratitis capitata), eggs on insect diet in microtiter plates; conditions: 120 h, read-out: mortality in comparison with untreated controls
Method: For evaluating control of Mediterranean fruitfly (Ceratitis capitata) the test unit consisted of microtiter plates containing an insect diet and 50-80 C. capitata eggs.
The compounds were formulated using a solution containing 75% v/v water and 25% v/v DMSO. Different concentrations of formulated compounds were sprayed onto the insect diet at 5 μl, using a custom built micro atomizer, at two replications.
After application, microtiter plates were incubated at about 28±1° C. and about 80±5% relative humidity for 5 days. Egg and larval mortality was then visually assessed.

Bemisia argentifolii = assay: Silverleaf whitefly (Bemisia argentifolii) adults, sprayed cotton plants; conditions: 72 h, read-out: mortality in comparison with untreated controls
Method: as §1, with “water: aceton.” for “water:aceton.”
Cotton plants at the cotyledon stage (one plant per pot) were sprayed by an automated electrostatic plant sprayer equipped with an atomizing spray nozzle. The plants were dried in the sprayer fume hood and then removed from the sprayer. Each pot was placed into a plastic cup and 10 to 12 whitefly adults (approximately 3-5 days old) were introduced. The insects were collected using an aspirator and 0.6 cm, nontoxic Tygon® tubing (R-3603) connected to a barrier pipette tip. The tip, containing the collected insects, was then gently inserted into the soil containing the treated plant, allowing insects to crawl out of the tip to reach the foliage for feeding. Cups were covered with a reusable screened lid (150-micron mesh polyester screen PeCap from Tetko, Inc.). […] Mortality was assessed 3 days after treatment, compared to untreated control plants.

Heliothis virescens = assay: Tobacco budworm (Heliothis virescens), eggs on insect diet in 96-well microtiter plates; conditions: 120 h, read-out: mortality in comparison with untreated controls
Method: For evaluating control of tobacco budworm (Heliothis virescens) the test unit consisted of 96-well-microtiter plates containing an insect diet and 15-25 H. virescens eggs.
The compounds were formulated using a solution containing 75% v/v water and 25% v/v DMSO. Different concentrations of formulated compounds were sprayed onto the insect diet at 10 μl, using a custom built micro atomizer, at two replications.
After application, microtiter plates were incubated at about 28+1° C. and about 80+5% relative humidity for 5 days. Egg and larval mortality was then visually assessed.

Plutella xylostella = assay: Diamond back moth (Plutella xylostella), dipped cabbage leaves; conditions: 72 h, read-out: mortality in comparison with untreated controls
Method: The active compound is dissolved at the desired concentration in a mixture of 1:1 (vol:vol) distilled water:aceteone. Surfactant (Alkamuls® EL 620) is added at a rate of 0.1% (vol/vol). The test solution is prepared at the day of use.
Leaves of cabbage were dipped in test solution and air-dried. Treated leaves were placed in petri dish eslined with moist filter paper and inoculated with ten 3rd instar larvae. Mortality was recorded 72 hours after treatment. Feeding damages were also recorded using a scale of 0-100%.

Spodoptera eridania = assay: Southern armyworm (Spodoptera eridania), sprayed lima bean plants; conditions: 96 h, read-out: mortality in comparison with untreated controls
Method: as §1, with “in” for “in 1.3 ml ABgene®”, “The” for “These”, “50% acetone:50% water (v/v).” for “1:1 (vol:vol) water:aceton.”
Lima bean plants (variety Sieva) were grown 2 plants to a pot and selected for treatment at the 1st true leaf stage. Test solutions were sprayed onto the foliage by an automated electrostatic plant sprayer equipped with an atomizing spray nozzle. The plants were dried in the sprayer fume hood and then removed from the sprayer. Each pot was placed into perforated plastic bags with a zip closure. About 10 to 11 armyworm larvae were placed into the bag and the bags zipped closed. Test plants were maintained in a growth room at about 25° C. and about 20-40% relative humidity for 4 days, avoiding direct exposure to fluorescent light (24 hour photoperiod) to prevent trapping of heat inside the bags. Mortality and reduced feeding were assessed 4 days after treatment, compared to untreated control plants.

Nezara viridula = assay: Green soldier stink bug (Nezara viridula), sprayed soybean pods in Petri dishes; conditions: 120 h, read-out: mortality in comparison with untreated controls
Method: The active compound is dissolved at the desired concentration in a mixture of 1:1 (vol:vol) distilled water:aceteone. Surfactant (Kinetic HV) is added at a rate of 0.01% (vol/vol). The test solution is prepared at the day of use.
Soybean pods were placed in 90×50 mm glass Petri dishes lined with moist filter paper and inoculated with ten late 3rd instar N. viridula. Using a hand atomizer, an approximately 2 ml solution is sprayed into each Petri dish. Treated cups were kept at about 25-26° C. and relative humidity of about 65-70%. Percent mortality was recorded after 5 days.

CO/N=C/C(=O)/N=c1\ccccn1Cc1ccc(Cl)nc1 [Compound I-15]
≥ 75%: mortality at 2500 ppm (Myzus persicae) | mortality at 2500 ppm (Megoura viciae) | mortality at 300 ppm (Aphis gossypi) | mortality at 500 ppm (Aphis craccivora) | mortality at 500 ppm (Dichromothrips corbetti) | mortality at 300 ppm (Nephotettix virescens) | mortality at 500 ppm (Nilaparvata lugens) | mortality at 2500 ppm (Anthonomus grandis) | mortality at 2500 ppm (Ceratitis capitata) | mortality at 300 ppm (Bemisia argentifolii) | mortality at 2500 ppm (Heliothis virescens) | mortality at 500 ppm (Plutella xylostella) | mortality at 300 ppm (Spodoptera eridania) | mortality at 500 ppm (Nezara viridula)
